Activity, MIC50 and MIC90 data for seven compounds are collected here from ChEMBL document CHEMBL1255458, “Worldwide experience with the use of doripenem against extended-spectrum-beta-lactamase-producing and ciprofloxacin-resistant Enterobacteriaceae: analysis of six phase 3 clinical studies” (2010).

Converted amounts (≈) assume the structure as drawn. Some results are limits rather than exact numbers.

Assay [1] has as its system Enterobacteriaceae. The assay can be described thus: Antibacterial activity against ciprofloxacin-resistant Enterobacteriaceae clinical isolates isolated from patient with complicated urinary tract infection assessed as cure rate at test-of-cure visit by mMITT analysis. The format is functional, Urine.
The subject of assay [2] is Enterobacteriaceae. In words: Antibacterial activity against Enterobacteriaceae clinical isolates isolated from patient with complicated urinary tract infection assessed as cure rate at test-of-cure visit by mMITT analysis. The format is functional, Urine.
Assay [3] concerns Enterobacteriaceae. The assay can be described thus: Antibacterial activity against Enterobacteriaceae clinical isolates isolated from patient with complicated urinary tract infection assessed as cure rate at test-of-cure visit. The format is functional, Urine.
Assay [4] deals with Enterobacteriaceae. In words: Antibacterial activity against ciprofloxacin-resistant Enterobacteriaceae clinical isolates isolated from patient with complicated urinary tract infection assessed as cure rate at test-of-cure visit. The format is functional, Urine.
For assay [5], the system named is Enterobacteriaceae. In words: Antibacterial activity against extended spectrum beta-lactamase-producing Enterobacteriaceae clinical isolates isolated from patient with complicated urinary tract infection assessed as cure rate at test-of-cure visit by mMITT analysis. The class given is functional, Urine.
Assay [6] relates to Enterobacteriaceae. The assay can be described thus: Antibacterial activity against extended spectrum beta-lactamase-producing Enterobacteriaceae clinical isolates by broth microdilution method. The class given is functional. (Dilution methods test growth across graded concentrations, often in twofold steps.)
Assay [7] concerns Enterobacteriaceae. The assay can be described thus: Antibacterial activity against ciprofloxacin-resistant Enterobacteriaceae clinical isolates by broth microdilution method. The class given is functional.
Assay [8] concerns Enterobacteriaceae. The assay can be described thus: Antibacterial activity against extended spectrum beta-lactamase-producing Enterobacteriaceae clinical isolates isolated from patient with complicated urinary tract infection assessed as cure rate at test-of-cure visit. The format is functional, Urine.
Assay [9] has as its system Enterobacteriaceae. The assay can be described thus: Antibacterial activity against Enterobacteriaceae by broth microdilution method. The format is functional.
Assay [10] has as its system Enterobacteriaceae. The assay can be described thus: Antibacterial activity against ciprofloxacin-resistant Enterobacteriaceae clinical isolates isolated from patient with nosocomial pneumonia assessed as cure rate at test-of-cure visit by mMITT analysis. The class given is functional.
Assay [11] relates to Enterobacteriaceae. In words: Antibacterial activity against Enterobacteriaceae clinical isolates isolated from patient with nosocomial pneumonia assessed as cure rate at test-of-cure visit. The format is functional.
The test system of assay [12] is Enterobacteriaceae. The assay can be described thus: Antibacterial activity against extended spectrum beta-lactamase-producing Enterobacteriaceae clinical isolates isolated from patient with nosocomial pneumonia assessed as cure rate at test-of-cure visit by mMITT analysis. The class given is functional.
Assay [13] relates to Enterobacteriaceae. In words: Antibacterial activity against Enterobacteriaceae clinical isolates isolated from patient with nosocomial pneumonia assessed as cure rate at test-of-cure visit by mMITT analysis. The format is functional.
The next assay relates to Klebsiella pneumoniae. In words: Antibacterial activity against […] Klebsiella pneumoniae by broth microdilution method. The format is functional.
For assay [14], the system named is Enterobacteriaceae. In words: Antibacterial activity against extended spectrum beta-lactamase-producing Enterobacteriaceae clinical isolates isolated from patient with nosocomial pneumonia assessed as cure rate at test-of-cure visit. The class given is functional.
The test system of assay [15] is Enterobacteriaceae. In words: Antibacterial activity against ciprofloxacin-resistant Enterobacteriaceae clinical isolates isolated from patient with urinary tract infection assessed as cure rate at test-of-cure visit by mMITT analysis. The class given is functional, Urine.
For assay [16], the system named is Enterobacteriaceae. In words: Antibacterial activity against ciprofloxacin-resistant Enterobacteriaceae clinical isolates isolated from patient with urinary tract infection assessed as cure rate at test-of-cure visit. The format is functional, Urine.
For assay [17], the system named is Enterobacteriaceae. The assay can be described thus: Antibacterial activity against Enterobacteriaceae clinical isolates isolated from patient with complicated intra-abdominal infection assessed as cure rate at test-of-cure visit. The format is functional.
Assay [18] deals with Enterobacteriaceae. In words: Antibacterial activity against Enterobacteriaceae clinical isolates isolated from patient with urinary tract infection assessed as cure rate at test-of-cure visit by mMITT analysis. The class given is functional, Urine.
In assay [19] the test system is Enterobacteriaceae. In words: Antibacterial activity against extended spectrum beta-lactamase-producing Enterobacteriaceae clinical isolates isolated from patient with urinary tract infection assessed as cure rate at test-of-cure visit by mMITT analysis. The format is functional, Urine.
Assay [20] deals with Enterobacteriaceae. The assay can be described thus: Antibacterial activity against Enterobacteriaceae clinical isolates isolated from patient with urinary tract infection assessed as cure rate at test-of-cure visit. The class given is functional, Urine.
Assay [21] relates to Enterobacteriaceae. The assay can be described thus: Antibacterial activity against Enterobacteriaceae clinical isolates isolated from patient with complicated intra-abdominal infection assessed as cure rate at test-of-cure visit by mMITT analysis. The class given is functional.
Assay [22] has as its system Enterobacteriaceae. In words: Antibacterial activity against extended spectrum beta-lactamase-producing Enterobacteriaceae clinical isolates isolated from patient with urinary tract infection assessed as cure rate at test-of-cure visit. The format is functional, Urine.
In assay [23] the test system is Enterobacteriaceae. The assay can be described thus: Antibacterial activity against ciprofloxacin-resistant Enterobacteriaceae clinical isolates isolated from patient with complicated intra-abdominal infection assessed as cure rate at test-of-cure visit by mMITT analysis. The class given is functional.
The subject of assay [24] is Enterobacteriaceae. In words: Antibacterial activity against extended spectrum beta-lactamase-producing Enterobacteriaceae clinical isolates isolated from patient with complicated intra-abdominal infection assessed as cure rate at test-of-cure visit. The format is functional.
The test system of assay [25] is Enterobacteriaceae. The assay can be described thus: Antibacterial activity against ciprofloxacin-resistant Enterobacteriaceae clinical isolates isolated from patient with complicated intra-abdominal infection assessed as cure rate at test-of-cure visit. The class given is functional.
For assay [26], the system named is Enterobacteriaceae. The assay can be described thus: Antibacterial activity against extended spectrum beta-lactamase-producing Enterobacteriaceae clinical isolates isolated from patient with complicated intra-abdominal infection assessed as cure rate at test-of-cure visit by mMITT analysis. The class given is functional.
Assay [27] concerns Enterobacteriaceae. In words: Antibacterial activity against ciprofloxacin-resistant Enterobacteriaceae clinical isolates isolated from patient with nosocomial pneumonia assessed as cure rate at test-of-cure visit. The format is functional.

Regarding `C[C@H]1COc2c(N3CCN(C)CC3)c(F)cc3c(=O)c(C(=O)O)cn1c23.C[C@H]1COc2c(N3CCN(C)CC3)c(F)cc3c(=O)c(C(=O)O)cn1c23.O` [LEVOFLOXACIN], the Activity with Enterobacteriaceae [1] stood at 23.8%; with Enterobacteriaceae [2], 75.2%; in the assay with Enterobacteriaceae [3] it was 85.4%; in the assay with Enterobacteriaceae [4], 21.9%; with Enterobacteriaceae [5], 14.3%; with Enterobacteriaceae [8], 20%. Also, the MIC50 was 8 mg/L against Enterobacteriaceae [6], 16 mg/L against Enterobacteriaceae [7] and at most 0.03 mg/L in the assay with Enterobacteriaceae [9]. Further, the MIC90 stood at 32 mg/L against Enterobacteriaceae [6], 64 mg/L against Enterobacteriaceae [7] and 8 mg/L with Enterobacteriaceae [9].

Take `NCC[C@H](O)C(=O)N[C@@H]1C[C@H](N)[C@@H](O[C@H]2O[C@H](CN)[C@@H](O)[C@H](O)[C@H]2O)[C@H](O)[C@H]1O[C@H]1O[C@H](CO)[C@@H](O)[C@H](N)[C@H]1O` [AMIKACIN]: the MIC50 in the assay with Enterobacteriaceae [6] turned out to be 8 mg/L (≈ 13.7 µM); against Enterobacteriaceae [7], 4 mg/L (≈ 6.83 µM); against Enterobacteriaceae [9], 2 mg/L (≈ 3.42 µM). Moreover, the MIC90 in the assay on Enterobacteriaceae [6] was over 64 mg/L; against Enterobacteriaceae [9] it was 8 mg/L (≈ 13.7 µM).

Turning to `C[C@@H](O)[C@H]1C(=O)N2C(C(=O)O)=C(SCCNC=N)C[C@H]12` [IMIPENEM ANHYDROUS], the Activity is on record as 83.3% in the assay on Enterobacteriaceae [10]; 64.4% with Enterobacteriaceae [11]; 100% in the assay on Enterobacteriaceae [12]; 61.4% in the assay on Enterobacteriaceae [13]; 100% in the assay on Enterobacteriaceae [14]. Further, the MIC50 with Enterobacteriaceae [6], against Enterobacteriaceae [7] and against Klebsiella pneumoniae was 0.12 mg/L (≈ 0.401 µM) in each case. Further, the values for the MIC90 in the assay on Enterobacteriaceae [6], in the assay with Enterobacteriaceae [7] and against Klebsiella pneumoniae were 0.5 mg/L (≈ 1.67 µM), 1 mg/L (≈ 3.34 µM) and 1 mg/L (≈ 3.34 µM), respectively.

Take `CC(C)(O/N=C(\C(=O)N[C@@H]1C(=O)N2C(C(=O)[O-])=C(C[n+]3ccccc3)CS[C@H]12)c1csc(N)n1)C(=O)O` [CEFTAZIDIME]: the MIC50 against Enterobacteriaceae [6] was found to be 32 mg/L (≈ 58.5 µM); against Enterobacteriaceae [7], 1 mg/L (≈ 1.83 µM); in the assay on Enterobacteriaceae [9], 0.12 mg/L (≈ 0.22 µM). The MIC90 was over 32 mg/L in the assay with Enterobacteriaceae [6], over 32 mg/L against Enterobacteriaceae [7] and 0.5 mg/L (≈ 0.915 µM) with Enterobacteriaceae [9].

In the case of `C[C@@H](O)[C@H]1C(=O)N2C(C(=O)O)=C(S[C@@H]3CN[C@H](CNS(N)(=O)=O)C3)[C@H](C)[C@H]12` [DORIPENEM], the Activity in the assay on Enterobacteriaceae [1] is reported as 53.3%; with Enterobacteriaceae [15] it was 61.9%; with Enterobacteriaceae [2] it was 74.3%; in the assay with Enterobacteriaceae [3], 83.5%; in the assay on Enterobacteriaceae [11], 69.1%; in the assay with Enterobacteriaceae [12], 64.3%. Further, the Activity came to 68.1% in the assay on Enterobacteriaceae [16]; 50% with Enterobacteriaceae [5]; 84.4% in the assay with Enterobacteriaceae [17]; 73.6% in the assay with Enterobacteriaceae [18]; 59.6% in the assay on Enterobacteriaceae [13]; 66.7% in the assay on Enterobacteriaceae [19]. The Activity came to 82.3% in the assay with Enterobacteriaceae [20]; 77.3% in the assay with Enterobacteriaceae [21]; 72.7% in the assay on Enterobacteriaceae [22]; 83.3% in the assay with Enterobacteriaceae [23]; 71.4% with Enterobacteriaceae [24]; 60% with Enterobacteriaceae [8]. Besides, the Activity in the assay with Enterobacteriaceae [25] is 82.4%; in the assay with Enterobacteriaceae [14] it was 75%; with Enterobacteriaceae [26], 75%; in the assay with Enterobacteriaceae [27] it was 70%. The figures for the MIC50 with Enterobacteriaceae [6], in the assay with Enterobacteriaceae [7] and in the assay on Klebsiella pneumoniae were 0.06 mg/L (≈ 0.143 µM), 0.03 mg/L (≈ 0.0713 µM) and at most 0.03 mg/L, respectively. For the same compound, the MIC90 against Enterobacteriaceae [6] is 0.25 mg/L (≈ 0.595 µM); in the assay on Enterobacteriaceae [7] it was 0.5 mg/L (≈ 1.19 µM); in the assay on Klebsiella pneumoniae it was 0.12 mg/L (≈ 0.285 µM).

With `C[C@@H](O)[C@H]1C(=O)N2C(C(=O)O)=C(S[C@@H]3CN[C@H](C(=O)Nc4cccc(C(=O)O)c4)C3)[C@H](C)[C@H]12` [ERTAPENEM], the MIC50 in the assay on Enterobacteriaceae [6] was 0.12 mg/L (≈ 0.252 µM); with Enterobacteriaceae [7], at most 0.03 mg/L; against Klebsiella pneumoniae it was at most 0.03 mg/L. Further, the values for the MIC90 against Enterobacteriaceae [6], with Enterobacteriaceae [7] and in the assay on Klebsiella pneumoniae were 1 mg/L (≈ 2.1 µM), 4 mg/L (≈ 8.41 µM) and at most 0.03 mg/L, respectively.

With `C[C@@H](O)[C@H]1C(=O)N2C(C(=O)O)=C(S[C@@H]3CN[C@H](C(=O)N(C)C)C3)[C@H](C)[C@H]12` [MEROPENEM], the Activity in the assay on Enterobacteriaceae [17] is reported as 85%; with Enterobacteriaceae [21], 77.9%; in the assay on Enterobacteriaceae [23], 81.3%; with Enterobacteriaceae [24] it was 100%; with Enterobacteriaceae [25], 91.7%; with Enterobacteriaceae [26] it was 62.5%. Also, the MIC50 against Enterobacteriaceae [6] was at most 0.03 mg/L; with Enterobacteriaceae [7] it was 0.03 mg/L (≈ 0.0782 µM); in the assay with Klebsiella pneumoniae it was at most 0.03 mg/L. Besides, the MIC90 in the assay with Enterobacteriaceae [6] was found to be 0.12 mg/L (≈ 0.313 µM); with Enterobacteriaceae [7], 0.25 mg/L (≈ 0.652 µM); against Klebsiella pneumoniae, 0.06 mg/L (≈ 0.156 µM).

Usually MIC50 stands for the lowest concentration that inhibits either 50% of growth or 50% of the strains tested, depending on the study. Read a high MIC50 as lower susceptibility. The term MIC90 denotes an inhibitory concentration at the 90% level, which refers to growth in some studies and to a panel of isolates in others. The low end stands for greater potency, the high end for weaker potency.
